Six compounds from ChEMBL document CHEMBL1145678, “Histamine-release effectors from Angelica dahurica var. dahurica root” (1997) can be followed below.

Assay [1] deals with Mus musculus. Nature of the assay: Effect on compound 48/80-induced histamine level in ddY mouse peritoneal cavity fluid assessed as histamine release at 10 mg/kg, ip administered 15 mins before compound 48/80 challenge measured after 10 mins by fluorometric assay relative to control. Conditions: route intraperitoneal. It is filed as functional.
Assay [2] concerns Mus musculus. Description: Effect on compound 48/80-induced histamine level in ddY mouse peritoneal cavity fluid assessed as histamine release at 25 mg/kg, ip administered 15 mins before compound 48/80 challenge measured after 10 mins by fluorometric assay relative to control. Format: functional. Particulars: route intraperitoneal.

For the compound `COc1c2ccoc2cc2oc(=O)ccc12` [BERGAPTEN], the Activity in the assay on Mus musculus [1] was 108.2%; in the assay with Mus musculus [2] it was 55.4%.
On to `COc1c2ccoc2c(OC[C@@H](O)C(C)(C)O)c2oc(=O)ccc12` [BYAKANGELICIN], for which the Activity was determined as 105.4% with Mus musculus [1] and 57% in the assay with Mus musculus [2].
On to `CC(C)(O)[C@H](O)COc1c2ccoc2cc2oc(=O)ccc12` [OXYPEUCEDANIN HYDRATE], for which the results for the Activity in the assay on Mus musculus [1] and in the assay on Mus musculus [2] were 114.8% and 69.1%, respectively.
As to `CC1(C)O[C@H]1COc1c2ccoc2cc2oc(=O)ccc12` [OXYPEUCEDANIN], the Activity was 142.6% in the assay with Mus musculus [1] and 136.1% in the assay with Mus musculus [2].
For `COc1c2ccoc2c(OCC=C(C)C)c2oc(=O)ccc12` [PHELLOPTERIN], the results for the Activity in the assay on Mus musculus [1] and in the assay with Mus musculus [2] were 109.8% and 137.7%, respectively.
As for `COc1c2ccoc2c(OC[C@@H](OC(C)=O)C(C)(C)O)c2oc(=O)ccc12`, the Activity worked out at 93.2% in the assay on Mus musculus [1] and 151% in the assay with Mus musculus [2].
